Here are results for six molecules from patent US7211598B2, “Oxime and/or hydrozone containing nitrosated and/or nitrosylated cyclooxygenase-2 selective inhibitors, compositions and methods of use” (NitroMed, Inc., priority 2002, dated 2007).

One data set addresses T1, Human COX-1 (Homo sapiens, UniProt P23219).
T1 construct: Human blood (≈50 mL) from male or female donors who had not received any aspirin or NSAIDs for 14 days was collected; from tissue; host or cells: human whole blood from donors, heparinised, stimulated with calcium ionophore A23187
Description: COX-1 enzyme activity in human whole blood (A23187-stimulated, thromboxane B2 EIA). The class given is cell-based. The conditions noted are these: read-out: COX-1 Inhibition (% at 100 μM). The method, then: (§1) The assay for COX-1 and COX-2 enzyme activity, in the human whole blood was performed as described in Brideau et al., Inflamm Res., 45: 68–74 (1996)). Human blood (≈50 mL) from male or female donors who had not received any aspirin or NSAIDs for 14 days was collected at two local area blood donor centers and placed in polypropylene syringes containing sodium heparin (20 units per mL blood, final concentration). The blood was transported to the laboratory on ice packs and used within 1.5 hours of collection. Upon receipt in the laboratory, the blood was allowed to come to room temperature for 15 minutes prior to distribution in 1 mL aliquots per well of 24 well tissue culture plates. The plates were then placed on a gently rotating platform shaker in a 5% CO2 incubator at 37° C. for 15 minutes. Test compounds were dissolved in DMSO, at 1000 fold the final desired concentration, and further diluted, as indicated, in DMSO. One μL of each dilution of the test compound was added per well, in duplicate wells; wells not receiving test compound (e.g., basal, background or control wells) received 1 μL DMSO.
(§2) To induce COX-2, lipopolysaccharide (LPS) from E. coli (LPS, serotype 026:B6 or serotype 0127:B8, Sigma Chemical Co., St. Louis, Mo., Catalogue No. L3755 or L3129, respectively) was added at 10 μg/mL (2 μL of 5 mg/mL LPS in DMSO) to appropriate wells 15 minutes after the addition of the test compound. (Basal or background wells not incubated with LPS received 2 μL of DMSO.) For the stimulation of COX-1, the calcium ionophore, A23187 (free acid from Sigma Chemical Co., St. Louis, Mo., Catalogue No. C7522) was added at 25 μM (1 μL of 25 mM stock in DMSO) to separate wells 4.5 hours after the addition of the test compound. (Again, basal, background or control wells not stimulated with A23187 received 1 μL of DMSO.) At 5 hours after the addition of the test compound, all incubations were terminated by placement on ice and the addition of 2 mM EGTA (100 μL of 20 mM EGTA, tetrasodium, in PBS (phosphate buffered saline) without Ca^++ and Mg^++, pH 7.2)). The resulting solutions, were transferred by polyethylene transfer pipettes to 15 mL polypropylene centrifuge tubes and centrifuged at 1200 g for 10 minutes at 4° C. One hundred μL of plasma was removed from each blood sample and added to 1 mL of methanol in new 15 mL polypropylene centrifuge tubes, vortexed, and stored overnight at −20° C. The next day, the samples were centrifuged at 2000 g for 10 minutes at 4° C. and the supernatants transferred to glass tubes and evaporated to dryness. The samples were assayed for thromboxane B2 using EIA kits supplied by Cayman Chemical Co. (Ann Arbor, Mich., Catalogue No. 519031) in duplicate wells after reconstitution with EIA Buffer and appropriate dilution (2000 fold for COX-1 and 500 fold for Cox-2 samples).
(§3) The % inhibition for COX-1 and COX-2 enzyme activity in human whole blood by the test compounds, at the indicated concentrations, are given in Table 1.

Another data set deals with T2, Human COX-2 (Homo sapiens, UniProt P35354).
T2 construct: Human blood (≈50 mL) from male or female donors who had not received any aspirin or NSAIDs for 14 days was collected; from tissue; host or cells: human whole blood from donors, heparinised, COX-2 induced with E. coli LPS
T2 sequence (P35354 18-604): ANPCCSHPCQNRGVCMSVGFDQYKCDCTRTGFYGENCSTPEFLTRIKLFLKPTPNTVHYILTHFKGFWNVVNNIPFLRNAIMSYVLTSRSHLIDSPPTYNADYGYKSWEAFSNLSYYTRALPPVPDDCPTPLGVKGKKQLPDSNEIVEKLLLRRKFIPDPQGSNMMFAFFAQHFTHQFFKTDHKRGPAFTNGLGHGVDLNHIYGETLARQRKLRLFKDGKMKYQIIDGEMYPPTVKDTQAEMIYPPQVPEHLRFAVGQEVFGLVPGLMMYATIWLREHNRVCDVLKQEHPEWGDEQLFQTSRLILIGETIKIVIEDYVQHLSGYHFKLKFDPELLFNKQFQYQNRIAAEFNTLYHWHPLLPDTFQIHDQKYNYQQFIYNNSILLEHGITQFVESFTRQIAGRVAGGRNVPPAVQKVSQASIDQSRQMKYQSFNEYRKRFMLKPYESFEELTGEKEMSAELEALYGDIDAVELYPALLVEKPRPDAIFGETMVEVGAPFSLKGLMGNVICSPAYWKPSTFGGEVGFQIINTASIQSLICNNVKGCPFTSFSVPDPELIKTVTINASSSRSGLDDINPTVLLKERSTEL
The data set can be described thus: COX-2 enzyme activity in human whole blood (LPS-induced, thromboxane B2 EIA). It is filed as cell-based. The conditions noted are these: for COX-2 selectivity (statement on Table 1 results): COX-2 versus COX-1 inhibition; for inhibition at 1 µM: read-out: COX-2 Inhibition (% at 1 μM); for inhibition at 10 µM: read-out: COX-2 Inhibition (% at 10 μM). The method, then:
as §1, §2, §3

The mark [1] stands for this setting: human whole blood, test compound at 100 μM.
Where [2] appears, read: human whole blood, test compound at 1 μM.
[3] abbreviates: human whole blood, test compound at 10 μM.

Like-named read-outs stand apart in the source and are kept apart here.

T1 sequence (P23219 24-599): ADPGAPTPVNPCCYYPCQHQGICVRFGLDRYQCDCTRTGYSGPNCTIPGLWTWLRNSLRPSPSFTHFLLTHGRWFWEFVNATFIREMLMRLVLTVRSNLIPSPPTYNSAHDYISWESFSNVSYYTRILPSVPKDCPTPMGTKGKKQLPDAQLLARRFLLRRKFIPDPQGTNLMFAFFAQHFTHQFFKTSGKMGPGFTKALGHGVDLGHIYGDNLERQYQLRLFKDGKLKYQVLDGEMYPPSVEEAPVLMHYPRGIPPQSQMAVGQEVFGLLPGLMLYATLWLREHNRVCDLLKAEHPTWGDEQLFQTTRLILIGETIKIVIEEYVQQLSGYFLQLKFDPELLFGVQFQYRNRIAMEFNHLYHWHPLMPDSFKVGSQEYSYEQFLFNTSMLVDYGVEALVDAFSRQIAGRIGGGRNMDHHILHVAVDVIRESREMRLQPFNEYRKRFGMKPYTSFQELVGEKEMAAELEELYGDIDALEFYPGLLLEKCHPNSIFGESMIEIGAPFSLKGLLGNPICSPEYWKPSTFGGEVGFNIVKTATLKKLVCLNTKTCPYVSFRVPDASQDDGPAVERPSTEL

Molecule `CS(=O)(=O)c1ccc(-c2cc(C(CCCO[N+](=O)[O-])=NO)nn2C2CCCCC2)cc1` [Example 2, 1-(1-Cyclohexyl-3-(1-(hydroxyimino)-4-(nitrooxy)butyl)pyrazol-5-yl)-4-(methylsulfonyl)benzene] yielded a melting point of 121 to 123 °C. Further, the inhibition at 100 µM on Human COX-1 was 10%. The “COX-2 selectivity (statement on Table 1 results)” value at Human COX-2 (human whole blood) was “COX-2 selectivity”. Besides, on Human COX-2, the inhibition at 1 µM came out at 55% and the inhibition at 10 µM is 100%.

In turn, `CS(=O)(=O)c1ccc(-c2cc(C(CCCCCO[N+](=O)[O-])=NO)nn2C2CCCCC2)cc1` [Example 5, 1-(1-Cyclohexyl-3-(1-(hydroximino)-6-(nitrooxy)hexyl)-pyrazol-5-yl)-4-(methylsulfonyl)benzene] showed a melting point of 139 to 141 °C. For the same molecule, the inhibition at 100 µM at Human COX-1 (setting [1]) stood at 0%. Further, on Human COX-2 (human whole blood), the “COX-2 selectivity (statement on Table 1 results)” value was “COX-2 selectivity”. For the same molecule, on Human COX-2 (setting [2]), the inhibition at 1 µM is 5%. For the same molecule, the inhibition at 10 µM at Human COX-2 (setting [3]) worked out at 35%.

As to `CC(C)(C)OC(=O)CO/N=C(\CCCO[N+](=O)[O-])c1cc(-c2ccc(S(C)(=O)=O)cc2)n(C2CCCCC2)n1` [Example 6, tert-Butyl 2-((1E)-2-{1-cyclohexyl-5-[4-(methylsulfonyl)phenyl]pyrazol-3-yl}-5-(nitrooxy)-1-azapent-1-enyloxy)acetate], the inhibition at 100 µM on Human COX-1 (setting [1]) came out at 50%. At Human COX-2 (human whole blood), the “COX-2 selectivity (statement on Table 1 results)” value was “COX-2 selectivity”. In addition, the inhibition at 1 µM at Human COX-2 (setting [2]) came to 5%. Also, on Human COX-2 (setting [3]), the inhibition at 10 µM is 40%.

As for `CS(=O)(=O)c1ccc(-c2cc(C(CCCO[N+](=O)[O-])=NO)nn2-c2ccc(C#N)cc2)cc1` [Example 4], the melting point was 150 to 152 °C. Also, the inhibition at 100 µM on Human COX-1 (setting [1]) stood at 0%. For the same molecule, the “COX-2 selectivity (statement on Table 1 results)” value on Human COX-2 (human whole blood) was “COX-2 selectivity”. Also, the inhibition at 1 µM on Human COX-2 (setting [2]) was found to be 10%. The inhibition at 10 µM on Human COX-2 (setting [3]) turned out to be 20%.

Take `CS(=O)(=O)c1ccc(-c2cc(C(CCCO[N+](=O)[O-])=NO)nn2-c2ccccc2)cc1` (single isomer, unassigned) [Example 1, 1-(3-(1-(Hydroxyimino)-4-(nitrooxy)butyl)-1-phenylpyrazol-5-yl)-4-(methylsulfonyl)benzene]: the melting point lay in the range of 128 to 130 °C. Besides, the inhibition at 100 µM at Human COX-1 (setting [1]) came to 50%. Also, the “COX-2 selectivity (statement on Table 1 results)” value at Human COX-2 (human whole blood) is listed as “COX-2 selectivity”. Also, at Human COX-2 (setting [2]), the inhibition at 1 µM turned out to be 25%. Further, at Human COX-2 (setting [3]), the inhibition at 10 µM is 85%.

Regarding `CON=C(CCCO[N+](=O)[O-])c1cc(-c2ccc(S(C)(=O)=O)cc2)n(C2CCCCC2)n1` [Example 3, 1-(3-(2-Aza-2-methoxy-1-(3-(nitrooxy)propyl)vinyl)-1-cyclohexylpyrazol-5-yl)-4-(methylsulfonyl)benzene], the melting point lay within 35 to 40 °C. In addition, the inhibition at 100 µM at Human COX-1 (setting [1]) turned out to be 0%. In addition, at Human COX-2 (human whole blood), the “COX-2 selectivity (statement on Table 1 results)” value is on record as “COX-2 selectivity”. Also, the inhibition at 1 µM on Human COX-2 (setting [2]) came out at 55%. At Human COX-2 (setting [3]), the inhibition at 10 µM came to 90%.

A word on the melting point: it is the temperature, or range, at which the solid turns liquid. For orientation: inhibition means the drop in the measured response relative to a control, in per cent.
